Legend:
Conditions in all cases: 72 h
BV-173 = system: BV-173
Method in brief: (§1)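 Fifteen myeloid leukaemia lines in RPMI 1640 were treated for 72 h at 37 °C and 5% CO2 with five tenfold doses from 1 to 10,000 nM, in duplicate. ATP luminescence was normalised to vehicle and to a positive control at 10 µM, then fitted with a four-parameter log-logistic model. The IC50 came from these fits.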

HEL = system: HEL
Method in brief: as §1

K-562 = system: K-562
Method in brief: as §1

KU-812 = system: KU-812
Method in brief: as §1

LAMA-84 = system: LAMA-84
Method in brief: as §1

MOLM-13 = system: MOLM-13
Method in brief: as §1

MV4-11 = system: MV4-11
Method in brief: as §1

Mono-Mac-6 = system: Mono-Mac-6
Method in brief: as §1

SHI-1 = system: SHI-1
Method in brief: as §1

THP-1 = system: THP-1
Method in brief: as §1

HL-60 = assay: area under dose-response curve (viability, 1 nM-10 uM) (fraction (0-1)); higher = more sensitive
Method in brief: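 A rescreen of the full library used HL-60 cells in RPMI 1640 with 10% FBS on 384-well plates, run in duplicate at five tenfold concentrations (1–10,000 nM). Each screen included DMSO or 100 nM of one of three metabolic inhibitors and ran 72 h at 37 °C, 5% CO2. CellTiter-Glo viability was scaled between DMSO and 10 μM proteasome-inhibitor wells. Any area under the curve comes from four-parameter log-logistic fits with drc and PharmacoGx.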

[1] = co-treatment: GSK2194069 100 nM
[2] = co-treatment: pictilisib 100 nM

**Q.** How did the “IC50 (cell viability)” value (BV-173) turn out when `O=c1c(-c2ccc(O)cc2)coc2cc(O[C@@H]3O[C@H](CO)[C@@H](O)[C@H](O)[C@H]3O)ccc12` [Daidzin] was run?
**A.** > 10 µM

**Q.** And the “IC50 (cell viability)” value (HEL)?
**A.** > 10 µM

**Q.** What about the “IC50 (cell viability)” value (K-562) of the same compound?
**A.** > 10 µM

**Q.** What about the “IC50 (cell viability)” value (KU-812) of the same compound?
**A.** > 10 µM

**Q.** And the “IC50 (cell viability)” value (LAMA-84)?
**A.** > 10 µM

**Q.** And the “IC50 (cell viability)” value (MOLM-13)?
**A.** > 10 µM

**Q.** And the “IC50 (cell viability)” value (MV4-11)?
**A.** > 10 µM

**Q.** What about the “IC50 (cell viability)” value (Mono-Mac-6) of the same compound?
**A.** > 10 µM

**Q.** And the “IC50 (cell viability)” value (SHI-1)?
**A.** > 10 µM

**Q.** And the “IC50 (cell viability)” value (THP-1)?
**A.** > 10 µM

**Q.** And the “area under dose-response curve” value (HL-60; co-treatment: AZD3965 100 nM)?
**A.** < 0.0301

**Q.** What about the “area under dose-response curve” value (HL-60; co-treatment: DMSO vehicle) of the same compound?
**A.** < 0.0301

**Q.** What about the “area under dose-response curve” value (HL-60; [1]) of the same compound?
**A.** < 0.0301

**Q.** What about the “area under dose-response curve” value (HL-60; [2]) of the same compound?
**A.** < 0.0301

**Q.** Which results are given for `CCn1c(=Cc2cccc[n+]2CC)sc(=C2Sc3ccccc3N2C)c1=O` [MKT 077]?
**A.** IC50 (cell viability) (BV-173): > 10 µM; IC50 (cell viability) (HEL): > 10 µM; IC50 (cell viability) (K-562): 3.59 µM; IC50 (cell viability) (KU-812): > 10 µM; IC50 (cell viability) (LAMA-84): > 10 µM; IC50 (cell viability) (MOLM-13): 3.76 µM; IC50 (cell viability) (MV4-11): 3.37 µM; IC50 (cell viability) (Mono-Mac-6): > 10 µM; IC50 (cell viability) (SHI-1): 3.28 µM; IC50 (cell viability) (THP-1): > 10 µM; area under dose-response curve (HL-60; co-treatment: AZD3965 100 nM): < 0.0301; area under dose-response curve (HL-60; co-treatment: DMSO vehicle): < 0.0301; area under dose-response curve (HL-60; [2]): < 0.0301

**Q.** How did the “IC50 (cell viability)” value (BV-173) turn out when `C=CC(=O)c1ccc(O)cc1` [4-Acryloylphenol] was run?
**A.** 3.1 µM

**Q.** What about the “IC50 (cell viability)” value (HEL) of the same compound?
**A.** 6.6 µM

**Q.** And the “IC50 (cell viability)” value (K-562)?
**A.** > 10 µM

**Q.** And the “IC50 (cell viability)” value (KU-812)?
**A.** 7.96 µM

**Q.** And the “IC50 (cell viability)” value (LAMA-84)?
**A.** > 10 µM

**Q.** What about the “IC50 (cell viability)” value (MOLM-13) of the same compound?
**A.** > 10 µM

**Q.** What about the “IC50 (cell viability)” value (MV4-11) of the same compound?
**A.** 4.22 µM

**Q.** What about the “IC50 (cell viability)” value (Mono-Mac-6) of the same compound?
**A.** > 10 µM

**Q.** What about the “IC50 (cell viability)” value (SHI-1) of the same compound?
**A.** > 10 µM

**Q.** And the “IC50 (cell viability)” value (THP-1)?
**A.** > 10 µM

**Q.** And the “area under dose-response curve” value (HL-60; co-treatment: AZD3965 100 nM)?
**A.** < 0.0301

**Q.** And the “area under dose-response curve” value (HL-60; co-treatment: DMSO vehicle)?
**A.** < 0.0301

**Q.** And the “area under dose-response curve” value (HL-60; [1])?
**A.** < 0.0301

**Q.** What about the “area under dose-response curve” value (HL-60; [2]) of the same compound?
**A.** < 0.0301

**Q.** `N[C@@H](CC(=O)N1CCn2c(nnc2C(F)(F)F)C1)Cc1cc(F)c(F)cc1F` [Sitagliptin] was tested. Which “IC50 (cell viability)” value (BV-173) did it give?
**A.** > 10 µM

**Q.** What about the “IC50 (cell viability)” value (HEL) of the same compound?
**A.** > 10 µM

**Q.** What about the “IC50 (cell viability)” value (K-562) of the same compound?
**A.** > 10 µM

**Q.** What about the “IC50 (cell viability)” value (KU-812) of the same compound?
**A.** > 10 µM

**Q.** What about the “IC50 (cell viability)” value (LAMA-84) of the same compound?
**A.** > 10 µM

**Q.** And the “IC50 (cell viability)” value (MOLM-13)?
**A.** > 10 µM

**Q.** And the “IC50 (cell viability)” value (MV4-11)?
**A.** > 10 µM

**Q.** And the “IC50 (cell viability)” value (Mono-Mac-6)?
**A.** > 10 µM

**Q.** What about the “IC50 (cell viability)” value (SHI-1) of the same compound?
**A.** > 10 µM

**Q.** What about the “IC50 (cell viability)” value (THP-1) of the same compound?
**A.** > 10 µM

**Q.** And the “area under dose-response curve” value (HL-60; co-treatment: AZD3965 100 nM)?
**A.** < 0.0301

**Q.** What about the “area under dose-response curve” value (HL-60; co-treatment: DMSO vehicle) of the same compound?
**A.** < 0.0301

**Q.** What about the “area under dose-response curve” value (HL-60; [1]) of the same compound?
**A.** < 0.0301

**Q.** And the “area under dose-response curve” value (HL-60; [2])?
**A.** < 0.0301

**Q.** What does the source list for `CCCCCOC(=O)Nc1nc(=O)n([C@@H]2O[C@H](C)[C@@H](O)[C@H]2O)cc1F` [Capecitabine]?
**A.** IC50 (cell viability) (BV-173): > 10 µM; IC50 (cell viability) (HEL): > 10 µM; IC50 (cell viability) (K-562): > 10 µM; IC50 (cell viability) (KU-812): > 10 µM; IC50 (cell viability) (LAMA-84): > 10 µM; IC50 (cell viability) (MOLM-13): > 10 µM; IC50 (cell viability) (MV4-11): > 10 µM; IC50 (cell viability) (Mono-Mac-6): > 10 µM; IC50 (cell viability) (SHI-1): > 10 µM; IC50 (cell viability) (THP-1): > 10 µM; area under dose-response curve (HL-60; co-treatment: AZD3965 100 nM): < 0.0301; area under dose-response curve (HL-60; co-treatment: DMSO vehicle): < 0.0301; area under dose-response curve (HL-60; [1]): < 0.0301; area under dose-response curve (HL-60; [2]): < 0.0301

**Q.** Which results are given for `CCCCCN(C)CCC(O)(P(=O)(O)O)P(=O)(O)O` [Ibandronate]?
**A.** IC50 (cell viability) (BV-173): > 10 µM; IC50 (cell viability) (HEL): > 10 µM; IC50 (cell viability) (K-562): > 10 µM; IC50 (cell viability) (KU-812): > 10 µM; IC50 (cell viability) (LAMA-84): > 10 µM; IC50 (cell viability) (MOLM-13): > 10 µM; IC50 (cell viability) (MV4-11): > 10 µM; IC50 (cell viability) (Mono-Mac-6): > 10 µM; IC50 (cell viability) (SHI-1): > 10 µM; IC50 (cell viability) (THP-1): > 10 µM; area under dose-response curve (HL-60; co-treatment: AZD3965 100 nM): < 0.0301; area under dose-response curve (HL-60; co-treatment: DMSO vehicle): < 0.0301; area under dose-response curve (HL-60; [1]): < 0.0301; area under dose-response curve (HL-60; [2]): < 0.0301

**Q.** Which “IC50 (cell viability)” value (BV-173) does the source give for `Cc1nc(-c2ccccc2)sc1C(=O)Nc1ccc(S(N)(=O)=O)cc1` here?
**A.** > 10 µM

**Q.** What about the “IC50 (cell viability)” value (HEL) of the same compound?
**A.** > 10 µM

**Q.** What about the “IC50 (cell viability)” value (K-562) of the same compound?
**A.** > 10 µM

**Q.** What about the “IC50 (cell viability)” value (KU-812) of the same compound?
**A.** > 10 µM

**Q.** What about the “IC50 (cell viability)” value (LAMA-84) of the same compound?
**A.** > 10 µM

**Q.** What about the “IC50 (cell viability)” value (MOLM-13) of the same compound?
**A.** > 10 µM

**Q.** What about the “IC50 (cell viability)” value (MV4-11) of the same compound?
**A.** > 10 µM

**Q.** What about the “IC50 (cell viability)” value (Mono-Mac-6) of the same compound?
**A.** > 10 µM

**Q.** And the “IC50 (cell viability)” value (SHI-1)?
**A.** > 10 µM

**Q.** And the “IC50 (cell viability)” value (THP-1)?
**A.** > 10 µM

**Q.** And the “area under dose-response curve” value (HL-60; co-treatment: AZD3965 100 nM)?
**A.** < 0.0301

**Q.** What about the “area under dose-response curve” value (HL-60; co-treatment: DMSO vehicle) of the same compound?
**A.** < 0.0301

**Q.** And the “area under dose-response curve” value (HL-60; [1])?
**A.** < 0.0301

**Q.** And the “area under dose-response curve” value (HL-60; [2])?
**A.** < 0.0301
